Measurements as given in patent publication US20220089575A1, “FARNESOID X RECEPTOR AGONISTS AND USES THEREOF” (Metacrine, Inc., priority 2017, published 2022).
pEC50: −log10 of the molar value.

What follows are compounds tested against T1, hFXR (Homo sapiens, UniProt Q96RI1) (assay: In Vitro FXR Assay (TK): TK-ECRE-luc reporter in transfected CV-1 cells). Conditions: 18 hrs, luminescence, maximum efficacy of <25% of the Fexarmine control classified as '+'.
T1 construct: expressed in transfected cells; host or cells: CV-1 cells
T1 sequence (Q96RI1 1-486): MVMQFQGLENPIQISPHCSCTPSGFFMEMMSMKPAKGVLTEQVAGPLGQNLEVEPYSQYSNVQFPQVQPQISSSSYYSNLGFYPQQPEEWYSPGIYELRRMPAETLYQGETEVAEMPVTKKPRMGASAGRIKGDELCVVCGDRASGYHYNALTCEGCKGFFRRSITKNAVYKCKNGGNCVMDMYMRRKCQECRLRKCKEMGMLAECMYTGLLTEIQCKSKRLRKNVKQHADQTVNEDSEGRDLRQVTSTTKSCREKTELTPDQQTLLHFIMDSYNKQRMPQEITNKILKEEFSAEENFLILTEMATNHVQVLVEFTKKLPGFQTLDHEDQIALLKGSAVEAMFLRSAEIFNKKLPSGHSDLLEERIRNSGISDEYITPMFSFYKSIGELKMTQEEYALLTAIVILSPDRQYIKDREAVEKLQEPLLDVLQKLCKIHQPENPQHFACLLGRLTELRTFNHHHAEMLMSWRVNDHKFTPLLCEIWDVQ
T1 sequence (P19793 1-462 partner): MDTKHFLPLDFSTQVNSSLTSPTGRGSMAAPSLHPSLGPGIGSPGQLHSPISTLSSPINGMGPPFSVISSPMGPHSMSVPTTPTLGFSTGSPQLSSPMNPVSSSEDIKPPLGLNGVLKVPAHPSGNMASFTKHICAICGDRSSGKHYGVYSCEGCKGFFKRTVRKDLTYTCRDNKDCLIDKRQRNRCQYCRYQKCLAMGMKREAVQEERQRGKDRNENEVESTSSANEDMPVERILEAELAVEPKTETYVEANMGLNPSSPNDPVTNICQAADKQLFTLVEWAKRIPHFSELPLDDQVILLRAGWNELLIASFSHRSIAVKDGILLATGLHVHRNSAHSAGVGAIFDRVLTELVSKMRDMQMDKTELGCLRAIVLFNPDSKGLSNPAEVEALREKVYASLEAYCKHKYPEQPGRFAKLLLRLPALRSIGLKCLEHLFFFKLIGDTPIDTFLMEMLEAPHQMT
Assay type: cell-based
Procedure, shortened: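 Luciferase read-out after 18 h compound exposure of CV-1 cells carrying transfected hFXR plus hRXR expression plasmids, TK-ECRE-luc reporter and pCMX-YFP. Cells cultured in charcoal-stripped FBS before transfection; compounds serially diluted in DMSO.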

SMILES | pEC50
CNC(=O)O[C@H]1CC[C@H](C(=O)N(C[C@H]2CC[C@H](c3ccc(OC)c(C)c3)CC2)c2cc(-c3cnc(C(C)C)s3)ccn2)CC1 [Compound 5.02, trans-4-((4-(2-Isopropylthiazol-5-yl)pyridin-2-yl)((trans-4-(4-methoxy-3-methylphenyl)cyclohexyl)methyl)carbamoyl)cyclohexyl methylcarbamate] | ≥ 6.60
CNC(=O)O[C@H]1CC[C@H](C(=O)N(C[C@H]2CC[C@H](c3ccc(OC)c(C)n3)CC2)c2cc(-c3cnc(C4CC4)s3)ccn2)CC1 [Compound 5.03, trans-4-((4-(2-Cyclopropylthiazol-5-yl)pyridin-2-yl)((trans-4-(5-methoxy-6-methylpyridin-2-yl)cyclohexyl)methyl)carbamoyl)cyclohexyl methylcarbamate] | ≥ 6.60
CNC(=O)O[C@H]1CC[C@H](C(=O)N(C[C@H]2CC[C@H](c3ccc(OC)c(C)n3)CC2)c2cc(-c3cnc(C(C)C)s3)ccn2)CC1 [Compound 5.04, trans-4-((4-(2-Isopropylthiazol-5-yl)pyridin-2-yl)((trans-4-(5-methoxy-6-methylpyridin-2-yl)cyclohexyl)methyl)carbamoyl)cyclohexyl methylcarbamate] | ≥ 6.60
CNC(=O)O[C@H]1CC[C@H](C(=O)N(C[C@H]2CC[C@H](c3ccc(OC)c(C#N)n3)CC2)c2cccc(-c3cnc(C4CC4)s3)c2)CC1 [Compound 5.06, trans-4-(((trans-4-(6-Cyano-5-methoxypyridin-2-yl)cyclohexyl)methyl)(3-(2-cyclopropylthiazol-5-yl)phenyl)carbamoyl)cyclohexyl methylcarbamate] | ≥ 6.60
CNC(=O)O[C@H]1CC[C@H](C(=O)N(C[C@H]2CC[C@H](c3ccc(OC)c(C#N)n3)CC2)c2cc(-c3cnc(C4CC4)s3)ccn2)CC1 [Compound 5.07, trans-4-(((trans-4-(6-Cyano-5-methoxypyridin-2-yl)cyclohexyl)methyl)(4-(2-cyclopropylthiazol-5-yl)pyridin-2-yl)carbamoyl)cyclohexyl methylcarbamate] | ≥ 6.60
CNC(=O)O[C@H]1CC[C@H](C(=O)N(C[C@H]2CC[C@H](c3ccc(OC)c(C)n3)CC2)c2cccc(-c3cnc(C(C)C)s3)c2)CC1 [Compound 5.08, trans-4-((3-(2-Isopropylthiazol-5-yl)phenyl)((trans-4-(5-methoxy-6-methylpyridin-2-yl)cyclohexyl)methyl)carbamoyl)cyclohexyl methylcarbamate] | ≥ 6.60
CNC(=O)O[C@H]1CC[C@H](C(=O)N(C[C@H]2CC[C@H](c3ccc(OC)c(C)c3)CC2)c2cccc(-c3cnn(C(C)C)c3)c2)CC1 [Compound 5.10, trans-4-((3-(1-Isopropyl-1H-pyrazol-4-yl)phenyl)((trans-4-(4-methoxy-3-methylphenyl)cyclohexyl)methyl)carbamoyl)cyclohexyl methylcarbamate] | ≥ 6.60
CNC(=O)O[C@H]1CC[C@H](C(=O)N(C[C@H]2CC[C@H](c3ccc(OC)c(C)n3)CC2)c2cccc(-c3cnn(C(C)(C)C)c3)c2)CC1 [Compound 5.20, trans-4-((3-(1-(tert-Butyl)-1H-pyrazol-4-yl)phenyl)((trans-4-(5-methoxy-6-methylpyridin-2-yl)cyclohexyl)methyl)carbamoyl)cyclohexyl methylcarbamate] | ≥ 6.60
COc1ccc([C@H]2CC[C@H](CN(c3cccc(-c4cnn(C5CC5)c4)c3)C(=O)[C@H]3CC[C@H](OC(=O)N(C)C)CC3)CC2)cc1C [Compound 5.22, trans-4-((3-(1-Cyclopropyl-1H-pyrazol-4-yl)phenyl)((trans-4-(4-methoxy-3-methylphenyl)cyclohexyl)methyl)carbamoyl)cyclohexyl dimethylcarbamate] | ≥ 6.60

Results, then the compound that gave them:

pEC50 | SMILES
≥ 6.60 | CNC(=O)O[C@H]1CC[C@H](C(=O)N(C[C@H]2CC[C@H](c3ccc(OC)c(C#N)c3)CC2)c2cc(-c3cnc(C4CC4)s3)ccn2)CC1 [Compound 5.05, trans-4-(((trans-4-(3-Cyano-4-methoxyphenyl)cyclohexyl)methyl)(4-(2-cyclopropylthiazol-5-yl)pyridin-2-yl)carbamoyl)cyclohexyl methylcarbamate]
≥ 6.60 | CNC(=O)O[C@H]1CC[C@H](C(=O)N(C[C@H]2CC[C@H](c3ccc(N(C)C)nc3)CC2)c2cccc(-c3cnn(C4CC4)c3)c2)CC1 [Compound 5.09, trans-4-((3-(1-Cyclopropyl-1H-pyrazol-4-yl)phenyl)((trans-4-(6-(dimethylamino)pyridin-3-yl)cyclohexyl)methyl)carbamoyl)cyclohexyl methylcarbamate]
≥ 6.60 | CNC(=O)O[C@H]1CC[C@H](C(=O)N(C[C@H]2CC[C@H](c3cnc(OC)c(Cl)c3)CC2)c2cccc(-c3cnn(C4CC4)c3)c2)CC1 [Compound 5.11, trans-4-(((trans-4-(5-Chloro-6-methoxypyridin-3-yl)cyclohexyl)methyl)(3-(1-cyclopropyl-1H-pyrazol-4-yl)phenyl)carbamoyl)cyclohexyl methylcarbamate]
≥ 6.60 | CNC(=O)O[C@H]1CC[C@H](C(=O)N(C[C@H]2CC[C@H](c3ccc(OC)c(C)c3)CC2)c2cc(-c3cnn(C(C)C)c3)ccn2)CC1 [Compound 5.12, trans-4-((4-(1-Isopropyl-1H-pyrazol-4-yl)pyridin-2-yl)((trans-4-(4-methoxy-3-methylphenyl)cyclohexyl)methyl)carbamoyl)cyclohexyl methylcarbamate]
≥ 6.60 | CNC(=O)O[C@H]1CC[C@H](C(=O)N(C[C@H]2CC[C@H](c3ccc(OC)c(C)n3)CC2)c2cc(-c3cnn(C4CC4)c3)ccn2)CC1 [Compound 5.13, trans-4-((4-(1-Cyclopropyl-1H-pyrazol-4-yl)pyridin-2-yl)((trans-4-(5-methoxy-6-methylpyridin-2-yl)cyclohexyl)methyl)carbamoyl)cyclohexyl methylcarbamate]
≥ 6.60 | CNC(=O)O[C@H]1CC[C@H](C(=O)N(C[C@H]2CC[C@H](c3ccc(OC)c(C#N)c3)CC2)c2cccc(-c3cnn(C4CC4)c3)c2)CC1 [Compound 5.14, trans-4-(((trans-4-(3-Cyano-4-methoxyphenyl)cyclohexyl)methyl)(3-(1-cyclopropyl-1H-pyrazol-4-yl)phenyl)carbamoyl)cyclohexyl methylcarbamate]
≥ 6.60 | CNC(=O)O[C@H]1CC[C@H](C(=O)N(C[C@H]2CC[C@H](c3ccc(OC)c(C#N)c3)CC2)c2cccc(-c3cnn(C(C)C)c3)c2)CC1 [Compound 5.15, trans-4-(((trans-4-(3-Cyano-4-methoxyphenyl)cyclohexyl)methyl)(3-(1-Isopropyl-1H-pyrazol-4-yl)phenyl)carbamoyl)cyclohexyl methylcarbamate]
≥ 6.60 | CNC(=O)O[C@H]1CC[C@H](C(=O)N(C[C@H]2CC[C@H](c3cnc(OC)c(C)c3)CC2)c2cccc(-c3cnn(C4CC4)c3)c2)CC1 [Compound 5.16, trans-4-((3-(1-Cyclopropyl-1H-pyrazol-4-yl)phenyl)((trans-4-(6-methoxy-5-methylpyridin-3-yl)cyclohexyl)methyl)carbamoyl)cyclohexyl methylcarbamate]
≥ 6.60 | CNC(=O)O[C@H]1CC[C@H](C(=O)N(C[C@H]2CC[C@H](c3ccc(OC)c(C#N)c3)CC2)c2cc(-c3cnn(C4CC4)c3)ccn2)CC1 [Compound 5.17, trans-4-(((trans-4-(3-Cyano-4-methoxyphenyl)cyclohexyl)methyl)(4-(1-cyclopropyl-1H-pyrazol-4-yl)pyridin-2-yl)carbamoyl)cyclohexyl methylcarbamate]
≥ 6.60 | CNC(=O)O[C@H]1CC[C@H](C(=O)N(C[C@H]2CC[C@H](c3ccc(OC)c(C#N)c3)CC2)c2cc(-c3cnn(C(C)C)c3)ccn2)CC1 [Compound 5.18, trans-4-(((trans-4-(3-Cyano-4-methoxyphenyl)cyclohexyl)methyl)(4-(1-isopropyl-1H-pyrazol-4-yl)pyridin-2-yl)carbamoyl)cyclohexyl methylcarbamate]
≥ 6.60 | CNC(=O)O[C@H]1CC[C@@H](C(=O)N(CC2CCC(c3ccc(OC)c(C#N)c3)CC2)c2cc(-c3cnn(C(C)C)c3)ccn2)CC1 (stereo partly drawn) [Compound 5.19, cis-4-(((4-(3-Cyano-4-methoxyphenyl)cyclohexyl)methyl)(4-(1-isopropyl-1H-pyrazol-4-yl)pyridin-2-yl)carbamoyl)cyclohexyl methylcarbamate]
≥ 6.60 | CNC(=O)O[C@H]1CC[C@H](C(=O)N(C[C@H]2CC[C@H](c3ccc(OC)c(C)n3)CC2)c2cccc(-c3cnn(C4CCC4)c3)c2)CC1 [Compound 5.21, trans-4-((3-(1-Cyclobutyl-1H-pyrazol-4-yl)phenyl)((trans-4-(5-methoxy-6-methylpyridin-2-yl)cyclohexyl)methyl)carbamoyl)cyclohexyl methylcarbamate]
